Measurements as given in patent US20060089340A1, “Novel steroids and steroid mimetics; method for their production; and use thereof” (priority 2003, published 2006).

**Q.** Which melting point does the source give for COc1ccc2c(c1)CC[C@@H]1[C@@H]2CC[C@]2(C)[C@@H](O)C[C@@H](O)[C@]12F here?
**A.** Its melting point is 188 to 191 °C.
